# According to patent publication US12404295B2, “(Hetero)aryl-methyl-thio-beta-D-galactopyranoside derivatives” (Idorsia Pharmaceuticals Ltd, priority 2019, dated 2025):
# Where two headings read alike, the source gives them in different places.
# Tests used:
# human Gal-3 (hGal-3) = human Gal-3 (hGal-3) (Homo sapiens (Human), UniProt P17931); assay: competitive binding assay: biotinylated hGal-3 binding to microplate-adsorbed asialofetuin (ASF)
# Summary of the method: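 Serially diluted compounds compete with biotinylated hGal-3 binding to adsorbed asialofetuin (3 hours, 4° C). After washing, streptavidin-peroxidase at 80 ng/mL for 1 hour at 4° C, with ABTS colour read-out. IC50 values are averaged over repeated runs.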
# human Gal-1 (hGal-1) = human Gal-1 (hGal-1) (Homo sapiens (Human), UniProt P09382); assay: competitive binding assay: biotinylated hGal-1 binding to microplate-adsorbed asialofetuin (ASF); conditions: Table 15; read-out: IC50 (Galectin-1 inhibition)
# Summary of the method: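 Spectrophotometric competition readout: after compound and biotinylated hGal-1 (300-1000 ng/mL) sit 3 h at 4° C on adsorbed asialofetuin, streptavidin-peroxidase (1 h, 4° C) and ABTS reveal residual binding. Reported IC50 values are means of repeat runs.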
# [1] = Gal-3 inhibition, binding of biotinylated hGal-3 to ASF, mean values, read-out: IC50
# [2] = Table 14, read-out: IC50 (Gal-3 inhibition)
# [3] = Table 5, read-out: IC50 (Gal-3 inhibition)
# human Gal-1 (hGal-1), sequence (P09382 whole entry): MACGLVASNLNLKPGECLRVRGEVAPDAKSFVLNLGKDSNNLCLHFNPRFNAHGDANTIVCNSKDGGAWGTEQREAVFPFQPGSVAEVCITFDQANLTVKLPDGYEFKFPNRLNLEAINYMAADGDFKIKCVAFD
# human Gal-3 (hGal-3), sequence (P17931 whole entry): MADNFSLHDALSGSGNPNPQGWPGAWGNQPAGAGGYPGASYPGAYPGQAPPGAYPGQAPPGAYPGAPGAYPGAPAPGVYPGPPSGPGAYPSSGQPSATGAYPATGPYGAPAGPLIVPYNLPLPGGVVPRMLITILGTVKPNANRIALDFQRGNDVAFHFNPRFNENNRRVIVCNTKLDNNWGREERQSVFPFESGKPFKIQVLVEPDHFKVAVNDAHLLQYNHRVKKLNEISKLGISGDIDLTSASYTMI
Molecule,IC50 (human Gal-3 (hGal-3); [1]) [nM],IC50 (human Gal-1 (hGal-1)) [nM],IC50 (human Gal-3 (hGal-3); [2]) [nM],IC50 (human Gal-3 (hGal-3); [3]) [nM],"IC50 (human Gal-3 (hGal-3); Table 10, 2-OMe-Gal inhibitors, read-out: IC50 (Gal-3 inhibition)) [nM]"
"Cc1c(F)cc(-c2cn([C@H]3[C@@H](O)[C@@H](CO)O[C@@H](S[C@H](c4ccccc4C(F)(F)F)C(C)(C)O)[C@@H]3O)nn2)cc1F [Example 3.31.112R., (2S,3R,4S,5R,6R)-4-(4-(3,5-Difluoro-4-methylphenyl)-1H-1,2,3-triazol-1-yl)-2-(((R)-2-hydroxy-2-methyl-1-(2-(trifluoromethyl)phenyl)propyl)thio)-6-(hydroxymethyl)tetrahydro-2H-pyran-3,5-diol]",150,2840,–,–,–
"Cc1c(F)cc(-c2cn([C@H]3[C@@H](O)[C@@H](CO)O[C@@H](S[C@@H](c4ccccc4C(F)(F)F)C(C)(C)O)[C@@H]3O)nn2)cc1F [Example 3.31.112S., (2S,3R,4S,5R,6R)-4-(4-(3,5-Difluoro-4-methylphenyl)-1H-1,2,3-triazol-1-yl)-2-(((S)-2-hydroxy-2-methyl-1-(2-(trifluoromethyl)phenyl)propyl)thio)-6-(hydroxymethyl)tetrahydro-2H-pyran-3,5-diol]",4850,54200,–,–,–
"CO[C@@H]1[C@@H](n2cc(-c3cc(F)c(C)c(F)c3)nn2)[C@@H](O)[C@@H](CO)O[C@H]1S[C@@H](c1ncccc1C)C1(O)CCC(F)(F)CC1 [Example 3.44.126S.I., (2R,3R,4S,5R,6S)-6-(((S)-(4,4-Difluoro-1-hydroxycyclohexyl)(3-methylpyridin-2-yl)methyl)thio)-4-(4-(3,5-difluoro-4-methylphenyl)-1H-1,2,3-triazol-1-yl)-2-(hydroxymethyl)-5-methoxytetrahydro-2H-pyran-3-ol]",–,20000,1160,–,–
"CC(C)(O)C(S[C@@H]1O[C@H](CO)[C@H](O)[C@H](n2cc(-c3ccc(C#N)c(F)c3)nn2)[C@H]1O)c1ccccc1C(F)(F)F (stereo partly drawn) [Example 5.31.112., 4-(1-((2S,3R,4S,5R,6R)-3,5-Dihydroxy-2-((2-hydroxy-2-methyl-1-(2-(trifluoromethyl)phenyl)propyl)thio)-6-(hydroxymethyl)tetrahydro-2H-pyran-4-yl)-1H-1,2,3-triazol-4-yl)-2-fluorobenzonitrile]",1500,3580,–,–,–
"CO[C@@H]1[C@@H](n2cc(-c3ccc(Br)c(F)c3)nn2)[C@@H](O)[C@@H](CO)O[C@H]1SC(c1ncccc1C)C1(O)CCC(F)(F)CC1 (stereo partly drawn) [Example 12.44.126.I., (2R,3R,4S,5R,6S)-4-(4-(4-Bromo-3-fluorophenyl)-1H-1,2,3-triazol-1-yl)-6-(((4,4-difluoro-1-hydroxycyclohexyl)(3-methylpyridin-2-yl)methyl)thio)-2-(hydroxymethyl)-5-methoxytetrahydro-2H-pyran-3-ol]",–,3240,190,–,–
"CO[C@@H]1[C@@H](n2cc(-c3ccc(F)c(F)c3)nn2)[C@@H](O)[C@@H](CO)O[C@H]1S[C@@H](c1ncccc1C)C1(O)CCC(F)(F)CC1 [Example 16.44.126S.I., (2R,3R,4S,5R,6S)-6-(((S)-(4,4-Difluoro-1-hydroxycyclohexyl)(3-methylpyridin-2-yl)methyl)thio)-4-(4-(3,4-difluorophenyl)-1H-1,2,3-triazol-1-yl)-2-(hydroxymethyl)-5-methoxytetrahydro-2H-pyran-3-ol]",–,54200,1870,–,–
"CO[C@@H]1[C@@H](n2cc(-c3cc(F)c(Br)c(F)c3)nn2)[C@@H](O)[C@@H](CO)O[C@H]1SC(c1ncccc1C)C1(O)CCC(F)(F)CC1 (stereo partly drawn) [Example 18.44.126.I., (2R,3R,4S,5R,6S)-4-(4-(4-Bromo-3,5-difluorophenyl)-1H-1,2,3-triazol-1-yl)-6-(((4,4-difluoro-1-hydroxycyclohexyl)(3-methylpyridin-2-yl)methyl)thio)-2-(hydroxymethyl)-5-methoxytetrahydro-2H-pyran-3-ol]",–,3470,120,–,–
"(2R,3R,4S,5R,6S)-6-(((R)-(5-Cyclopropyl-3-methylisoxazol-4-yl)(1-hydroxycyclohexyl)methyl)thio)-2-(hydroxymethyl)-5-methoxy-4-(4-(3,4,5-trifluorophenyl)-1H-1,2,3-triazol-1-yl)tetrahydro-2H-pyran-3-ol [Example 2.39.128R.I.]",–,2360,–,–,300
"(2S,3R,4S,5R,6R)-2-(((4-Hydroxy-2,2,6,6-tetramethyltetrahydro-2H-pyran-4-yl)(2-(trifluoromethyl)phenyl)methyl)thio)-6-(hydroxymethyl)-4-(4-(3,4,5-trifluorophenyl)-1H-1,2,3-triazol-1-yl)tetrahydro-2H-pyran-3,5-diol [Example 2.42.102.]",–,18500,–,380,–

# More lines, in order of falling IC50 (human Gal-1 (hGal-1)), values ahead:
IC50 (human Gal-3 (hGal-3); [1]) [nM],IC50 (human Gal-1 (hGal-1)) [nM],IC50 (human Gal-3 (hGal-3); [2]) [nM],IC50 (human Gal-3 (hGal-3); [3]) [nM],Molecule,"IC50 (human Gal-3 (hGal-3); Table 10, 2-OMe-Gal inhibitors, read-out: IC50 (Gal-3 inhibition)) [nM]"
–,2430,40,–,"CO[C@@H]1[C@@H](n2cc(-c3cc(F)c(C)c(F)c3)nn2)[C@@H](O)[C@@H](CO)O[C@H]1S[C@H](c1ncccc1C)C1(O)CCC(F)(F)CC1 [Example 3.44.126R.I., (2R,3R,4S,5R,6S)-6-(((R)-(4,4-Difluoro-1-hydroxycyclohexyl)(3-methylpyridin-2-yl)methyl)thio)-4-(4-(3,5-difluoro-4-methylphenyl)-1H-1,2,3-triazol-1-yl)-2-(hydroxymethyl)-5-methoxytetrahydro-2H-pyran-3-ol]",–
–,2430,90,–,"CO[C@@H]1[C@@H](n2cc(-c3cc(F)c(Cl)c(F)c3)nn2)[C@@H](O)[C@@H](CO)O[C@H]1SC(c1ncccc1C)C1(O)CCC(F)(F)CC1 (stereo partly drawn) [Example 11.44.126.I., (2R,3R,4S,5R,6S)-4-(4-(4-Chloro-3,5-difluorophenyl)-1H-1,2,3-triazol-1-yl)-6-(((4,4-difluoro-1-hydroxycyclohexyl)(3-methylpyridin-2-yl)methyl)thio)-2-(hydroxymethyl)-5-methoxytetrahydro-2H-pyran-3-ol]",–
–,2350,–,360,"(2S,3R,4S,5R,6R)-2-(((2,3-Dichlorophenyl)(4,4-difluoro-1-hydroxycyclohexyl)methyl)thio)-6-(hydroxymethyl)-4-(4-(3,4,5-trifluorophenyl)-1H-1,2,3-triazol-1-yl)tetrahydro-2H-pyran-3,5-diol [Example 2.44.113.]",–
2240,2270,–,–,"CC(C)(O)C(S[C@@H]1O[C@H](CO)[C@H](O)[C@H](n2cc(-c3ccc4ccccc4c3)nn2)[C@H]1O)c1ccccc1C(F)(F)F (stereo partly drawn) [Example 4.31.112, (2S,3R,4S,5R,6R)-2-((2-Hydroxy-2-methyl-1-(2-(trifluoromethyl)phenyl)propyl)thio)-6-(hydroxymethyl)-4-(4-(naphthalen-2-yl)-1H-1,2,3-triazol-1-yl)tetrahydro-2H-pyran-3,5-diol]",–
–,1680,140,–,"CO[C@@H]1[C@@H](n2cc(-c3cc(F)c(Cl)c(Cl)c3)nn2)[C@@H](O)[C@@H](CO)O[C@H]1SC(c1ncccc1C)C1(O)CCC(F)(F)CC1 (stereo partly drawn) [Example 17.44.126.I., (2R,3R,4S,5R,6S)-4-(4-(3,4-Dichloro-5-fluorophenyl)-1H-1,2,3-triazol-1-yl)-6-(((4,4-difluoro-1-hydroxycyclohexyl)(3-methylpyridin-2-yl)methyl)thio)-2-(hydroxymethyl)-5-methoxytetrahydro-2H-pyran-3-ol]",–
–,1460,–,320,"(2S,3R,4S,5R,6R)-2-(((3,3-Difluoro-1-hydroxycyclobutyl)(3-(trifluoromethyl)pyridin-2-yl)methyl)thio)-6-(hydroxymethyl)-4-(4-(3,4,5-trifluorophenyl)-1H-1,2,3-triazol-1-yl)tetrahydro-2H-pyran-3,5-diol [Example 2.35.125.]",–
–,920,70,–,"CO[C@@H]1[C@@H](n2cc(-c3ccc(Cl)c(F)c3F)nn2)[C@@H](O)[C@@H](CO)O[C@H]1SC(c1ncccc1C)C1(O)CCC(F)(F)CC1 (stereo partly drawn) [Example 22.44.126.I., (2R,3R,4S,5R,6S)-4-(4-(4-Chloro-2,3-difluorophenyl)-1H-1,2,3-triazol-1-yl)-6-(((4,4-difluoro-1-hydroxycyclohexyl)(3-methylpyridin-2-yl)methyl)thio)-2-(hydroxymethyl)-5-methoxytetrahydro-2H-pyran-3-ol]",–
–,730,90,–,"CO[C@@H]1[C@@H](n2cc(-c3ccc(F)c(F)c3)nn2)[C@@H](O)[C@@H](CO)O[C@H]1SC(c1ncccc1C)C1(O)CCC(F)(F)CC1 (stereo partly drawn) [Example 16.44.126.I., (2R,3R,4S,5R,6S)-6-(((4,4-Difluoro-1-hydroxycyclohexyl)(3-methylpyridin-2-yl)methyl)thio)-4-(4-(3,4-difluorophenyl)-1H-1,2,3-triazol-1-yl)-2-(hydroxymethyl)-5-methoxytetrahydro-2H-pyran-3-ol]",–
–,570,80,–,"CO[C@@H]1[C@@H](n2cc(-c3ccc(F)c(F)c3)nn2)[C@@H](O)[C@@H](CO)O[C@H]1S[C@H](c1ncccc1C)C1(O)CCC(F)(F)CC1 [Example 16.44.126R.I., (2R,3R,4S,5R,6S)-6-(((R)-(4,4-Difluoro-1-hydroxycyclohexyl)(3-methylpyridin-2-yl)methyl)thio)-4-(4-(3,4-difluorophenyl)-1H-1,2,3-triazol-1-yl)-2-(hydroxymethyl)-5-methoxytetrahydro-2H-pyran-3-ol]",–
–,550,50,–,"CO[C@@H]1[C@@H](n2cc(-c3ccc(C)c(F)c3F)nn2)[C@@H](O)[C@@H](CO)O[C@H]1SC(c1ncccc1C)C1(O)CCC(F)(F)CC1 (stereo partly drawn) [Example 23.44.126.I., (2R,3R,4S,5R,6S)-6-(((4,4-Difluoro-1-hydroxycyclohexyl)(3-methylpyridin-2-yl)methyl)thio)-4-(4-(2,3-difluoro-4-methylphenyl)-1H-1,2,3-triazol-1-yl)-2-(hydroxymethyl)-5-methoxytetrahydro-2H-pyran-3-ol]",–
